Data as given in patent US7244750B2, “Active substance combinations having insecticidal and acaricidal properties” (Bayer CropScience Aktiengesellschaft, priority 2000, dated 2007).

Tested on: whitefly Bemisia tabaci
Experiment: Bemisia test (plant-damaging insects; infested cotton plants immersed in active compound preparation)
Type: in vivo
Details: single active compound, eggs, larvae and pupae on cotton plants (Gossypium hirsutum)
Procedure: • Bemisia Test • Solvent: 7.5 parts by weight of dimethylformamide Emulsifier: 2.5 parts by weight of alkylaryl polyglycol ether
To produce a suitable preparation of active compound, 1 part by weight of active compound is mixed with the stated amounts of solvent and emulsifier, and the concentrate is diluted with water to the desired concentration.
Cotton plants (Gossypium hirsutum) which are infested with eggs, larvae and pupae of the whitefly Bemisia tabaci are immersed in a preparation of active compound of the desired concentration.
After the desired period of time, the kill in % is determined. 100% means that all animals have been killed; 0% means that none of the animals have been killed.

SMILES | Kill rate in % after 10 d (20 ppm) [%] | Kill rate in % after 10 d (4 ppm) [%]
CC(COc1ccc(Oc2ccccc2)cc1)Oc1ccccn1 (stereo not shown) [Pyriproxiphen, pyriproxyfen] | 0 | –
Cc1cc(C)c(C2=C(OC(=O)CC(C)(C)C)C3(CCCC3)OC2=O)c(C)c1 [Ex. (I-b-1)] | 80 | 0
CC1=NNC(=O)N(/N=C/c2cccnc2)C1 [Pymetrozin, pymetrozin] | – | 0
